Laboratory results: patent US7265087B1, “Exendin improves β-cell response in subjects with impaired glucose tolerance” (priority 1998, dated 2007)
Values joined by “and” are separate entries in the source; they are usually repeats but may differ in a detail not shown here. Equal values may be shown once. No end group written: not given here.

Legend:
subjects with NIDDM = assay: 12 hour oscillatory glucose infusion with constant GLP-1 infusion, subjects with NIDDM; assay type: in vivo, human; parameters: Mean glucose 12 hour GLP-1: unit not given beside the values
Description: (§1) The studies described herein were performed in 10 subjects who were divided into two groups on the basis of their plasma glucose response to an oral glucose tolerance test using the criteria of the World Health Organization to define the degree of glucose tolerance. Five subjects had IGT, and five subjects had NIDDM. The gender, age, body mass index (BMI), basal levels of fasting glucose, 2 hour glucose, fasting insulin, and HBA1c for each subject are presented in Table 2. Diabetic subjects were older than those with IGT, but the groups were matched for by BMI. Mean fasting glucose levels and glycosylated hemoglobin concentrations were lower in the IGT group compared to subjects with NIDDM.
(§2) The coefficient of variation of this method was <2%. […] The average intraassay coefficient of variation was 5%. […] Diabetes 27, Suppl 1: 170-177, 1978.
(§3) All results are expressed as mean±SEM. Data analysis was performed using the Statistical Analysis System (SAS Version 6 Edition, for Personal Computers, SAS Institute, Inc., Cary, N.C.). The significance of differences within the individual induced by GLP-1 infusion was determined using paired t tests. Differences were considered to be significant if P<0.05.
(§4) Standard kinetic parameters for C-peptide clearance adjusted for age, sex and body surface area were utilized, Van Cauter E, Mestrez, F, Sturis J, Polonsky K S. Estimation of insulin secretion rates from C-peptide levels: comparison of individual and standard kinetic parameters for C-peptide clearance. Diabetes 41:368-377, 1992. These parameters were used to derive, in each 15 minute interval between blood sampling, the ISR from the plasma C-peptide concentrations by deconvolution as previously described.
The diabetic subjects were treated with diet alone with the exception of one subject D07, who was previously treated with an oral hypoglycemic agent that was discontinued 4 weeks prior to the study. None of the diabetic patients had ever received insulin. All subjects were placed on a weight maintenance diet containing at least 200 g of carbohydrate per day for two weeks before the study.
(§5) Each subject was studied on three separate occasions. All studies were performed after a 12-hour overnight fast beginning at 0700 unless otherwise stated with subjects in the recumbent position. An intravenous catheter was placed in each forearm, one for blood sampling and one for administration of glucose and GLP-1 as needed. In all experiments, the arm containing the sampling catheter was maintained in a heating blanket to ensure arterialization of the venous sample. In the following examples, the GLP-1 was administered to the subjects in the GLP-1 (7-36) amide form.
(§6) In order to determine whether the β-cells were able to detect and respond to oscillations of glucose, glucose was infused in an oscillatory pattern with a small volume of saline for 12 hours.
(§7) To determine whether insulin secretion was entrained by glucose in individual subjects, the temporal profiles of insulin secretion were analyzed by spectral analysis. Spectral power analysis was used to evaluate the presence of tight coupling between oscillations in glucose and oscillations in ISR. This method evaluated the regularity of insulin secretory oscillations at a predetermined frequency. Spectral peaks correspond to the dominant periodicity and height of the peaks correspond to spectral power. Each spectrum was normalized assuming the total variance of each series to be 100% and was expressed as the normalized spectral power.

[1] = test system: subjects with impaired glucose tolerance (IGT); assay: 12 hour oscillatory glucose infusion with constant GLP-1 infusion, subjects with IGT; assay type: in vivo, human; parameters: Mean glucose 12 hour GLP-1 / Mean ISR 12 hour GLP-1: unit not given beside the values
Description: as §1, §2, §3, §4, §5, §6, §7

pancreas = settings: background statement; cited from earlier work

With `CC[C@H](C)[C@H](NC(=O)[C@H](Cc1ccccc1)NC(=O)[C@H](CCC(=O)O)NC(=O)[C@H](CCCCN)NC(=O)[C@H](C)NC(=O)[C@H](C)NC(=O)[C@H](CCC(N)=O)NC(=O)CNC(=O)[C@H](CCC(=O)O)NC(=O)[C@H](CC(C)C)NC(=O)[C@H](Cc1ccc(O)cc1)NC(=O)[C@H](CO)NC(=O)[C@H](CO)NC(=O)[C@@H](NC(=O)[C@H](CC(=O)O)NC(=O)[C@H](CO)NC(=O)[C@@H](NC(=O)[C@H](Cc1ccccc1)NC(=O)[C@@H](NC(=O)CNC(=O)[C@H](CCC(=O)O)NC(=O)[C@H](C)NC(=O)[C@@H](N)Cc1c[nH]cn1)[C@@H](C)O)[C@@H](C)O)C(C)C)C(=O)N[C@@H](C)C(=O)N[C@@H](Cc1c[nH]c2ccccc12)C(=O)N[C@@H](CC(C)C)C(=O)N[C@H](C(=O)N[C@@H](CCCCN)C(=O)NCC(=O)N[C@@H](CCCNC(=N)N)C(N)=O)C(C)C` [GLP-1, GLP-1 (7-36) amide] the “Mean ISR 12 hour GLP-1” value (subjects with NIDDM; NIDDM group, Mean ± SEM, n=5, GLP-1 0.4 pmol/kg/min for 12 hours) was 508 ± 53.4, the “Mean glucose 12 hour GLP-1” value (subjects with NIDDM; NIDDM group, Mean ± SEM, n=5, GLP-1 0.4 pmol/kg/min for 12 hours, P<0.05 vs saline) was 9.40 ± 0.9 and the “mean ISRs during GLP-1 infusion compared to saline infusion” value (subjects with NIDDM; NIDDM subjects) was “not significantly different”. For the same compound, the “mean normalized spectral power for glucose during GLP-1 infusion” value (subjects with NIDDM; NIDDM subjects, P=0.18 vs saline, mean±SEM) was 9.8±0.7, the “Mean glucagon levels during GLP-1 infusion” value (subjects with NIDDM; NIDDM subjects, P=0.4 vs saline, mean±SEM) was 46.4 ± 3.2 pg/mL and the “increase of mean insulin levels during GLP-1 infusion compared to saline” value (subjects with NIDDM; NIDDM subjects, P=0.56, mean±SEM) was 7 ± 12 pmol/L. The “Spectral power for ISR during GLP-1 infusion” value (subjects with NIDDM; NIDDM subjects, normalized, P=0.6 vs saline, mean±SEM) was 1.5±0.8, the “average drop of mean glucose levels during GLP-1 infusion compared to saline” value (subjects with NIDDM; diabetics (NIDDM), P<0.0005, mean±SEM) was 5.2 ± 0.5 mM and the “Mean ISR 12 hour GLP-1” value (subjects with NIDDM; individual NIDDM subjects D06-D10, GLP-1 0.4 pmol/kg/min for 12 hours with oscillatory glucose infusion) was 477.7 and 715.4 and 487.7 and 412.5 and 448.9. The “Mean glucose 12 hour GLP-1” value (subjects with NIDDM; individual NIDDM subjects D06-D10, GLP-1 0.4 pmol/kg/min i.v. for 12 hours with oscillatory glucose infusion) was 11.53 and 10.51 and 6.24 and 8.84 and 9.90, the “Spectral power during GLP-1 infusion, individual subject” value (subjects with NIDDM; one subject with NIDDM (D07, FIGS. 6C and 6D), 0.28 during saline) was 1.51 and 1.5 and the “pattern of insulin secretory responses to glucose during GLP-1 infusion” value (subjects with NIDDM; two subjects with NIDDM, D07 and D09 (FIGS. 4B and 4D)) was “not improved”. The “Mean ISR 12 hour GLP-1” value ([1]; IGT group, Mean ± SEM, n=5, GLP-1 0.4 pmol/kg/min for 12 hours) was 654.2 ± 152.1, the “Mean glucose 12 hour GLP-1” value ([1]; IGT group, Mean ± SEM, n=5, GLP-1 0.4 pmol/kg/min for 12 hours, P<0.05 vs saline) was 6.35 ± 0.08 and the “mean ISRs during GLP-1 infusion compared to saline infusion” value ([1]; IGT subjects) was “not significantly different”. For the same compound, the “average drop of mean glucose levels during GLP-1 infusion compared to saline” value ([1]; IGT subjects, P<0.02, mean±SEM) was 2.4 ± 0.6 mM, the “mean normalized spectral power for glucose during GLP-1 infusion” value ([1]; IGT subjects, P=0.19 vs saline, mean±SEM) was 13.2±1.6 and the “increase of mean insulin levels during GLP-1 infusion compared to saline” value ([1]; IGT subjects, P=0.32, mean±SEM) was 102 ± 90 pmol/L. The “Mean glucagon levels during GLP-1 infusion” value ([1]; IGT subjects, P=0.94 vs saline, mean±SEM) was 39.3 ± 5.4 pg/mL, the “Spectral power for ISR during GLP-1 infusion” value ([1]; IGT subjects, normalized, P<0.006 vs saline, mean±SEM) was 8.9±1.7 and the “periodicity of the dominant spectral peak in ISR during GLP-1 infusion” value ([1]; individual IGT subject, period of exogenous glucose infusion 144 minutes) was 144 min. For the same compound, the “Mean ISR 12 hour GLP-1” value ([1]; individual IGT subjects D01-D05, GLP-1 0.4 pmol/kg/min for 12 hours with oscillatory glucose infusion) was 465.9 and 1042.7 and 365.9 and 1005.8 and 390.9, the “Mean glucose 12 hour GLP-1” value ([1]; individual IGT subjects D01-D05, GLP-1 0.4 pmol/kg/min i.v. for 12 hours with oscillatory glucose infusion) was 6.06 and 6.46 and 6.36 and 6.37 and 6.48 and the “Spectral power during GLP-1 infusion, individual subject” value ([1]; one subject with IGT (D02, FIGS. 6A and 6B), 0.6 during saline) was 8.9. For the same compound, the “pattern of insulin secretory responses to glucose during GLP-1 infusion” value ([1]; representative subjects with IGT, D01 and D02 (FIGS. 3B and 3D)) was “improved”.

In the case of “SEQ ID NO:5 (EGTFTSDVSSYLEGQAAKEFIAWLVKGRG; mammalian)”, the “production or release of insulin from the pancreas” value (pancreas) is listed as “do not stimulate the production or release of insulin from the pancreas”.

For “SEQ ID NO:6 (EGTFTSDVSSYLEGQAAKEFIAWLVKGR-NH2)”, the “production or release of insulin from the pancreas” value (pancreas) is given as “do not stimulate the production or release of insulin from the pancreas”.
